Columns and labels:
CHRM5 = target: T1, CHRM5 (Homo sapiens, UniProt P08912); assay: NanoBRET screen HiBiT-CHRM5 in HEK293; assay type: binding; conditions: CHRM5
T1 construct: purchased Promega (in-house HiBiT-GPCR construct library, NanoBRET)
T1 sequence (P08912 1-532): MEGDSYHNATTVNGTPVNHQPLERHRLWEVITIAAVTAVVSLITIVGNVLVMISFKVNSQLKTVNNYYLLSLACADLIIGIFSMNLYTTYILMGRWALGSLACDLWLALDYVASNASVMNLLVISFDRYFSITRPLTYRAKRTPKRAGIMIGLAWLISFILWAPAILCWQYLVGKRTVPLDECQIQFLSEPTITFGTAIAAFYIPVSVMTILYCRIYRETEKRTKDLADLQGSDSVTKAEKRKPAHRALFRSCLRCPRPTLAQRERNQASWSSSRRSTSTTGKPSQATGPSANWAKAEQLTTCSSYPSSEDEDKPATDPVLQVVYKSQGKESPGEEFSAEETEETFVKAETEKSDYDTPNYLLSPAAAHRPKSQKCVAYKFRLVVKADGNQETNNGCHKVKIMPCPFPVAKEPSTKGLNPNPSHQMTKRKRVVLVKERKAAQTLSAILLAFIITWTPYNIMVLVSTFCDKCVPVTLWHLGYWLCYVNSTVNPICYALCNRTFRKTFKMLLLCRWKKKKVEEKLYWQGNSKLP
Description: (§1) Each tracer candidate was screened across the entire library of HiBiT-GPCR constructs using NanoBRET as the detection modality. As depicted in Figure 4A, the specificity of interactions was evaluated through decrease in BRET due to competitive displacement of a bound tracer by excess parental compound. Each tracer was analyzed for binding to each HiBiT-GPCR fusion in the absence and in the presence of competing parental compound. Briefly, HEK293 cells were transfected with HiBiT-GPCR constructs diluted into promoterless DNA to reduce expression and maximize translocation to the cell surface. Each tracer candidate was then screened at concentrations of 1 μM and 0.1 μM across cells expressing these fusions. Cells were treated for 1.5 h with tracer either alone or in the presence of 20 μM competing parental compound (i.e., control). BRET was measured upon addition of purified LgBiT and subsequent complementation with HiBiT genetically fused to a GPCR. The specificity of interactions was assessed through a decrease in BRET signal due to competitive displacement of the bound tracer. To further gauge the robustness of these interactions, the fold response over the control (i.e., BRETtracer/BRETcontrol) was calculated. We chose a 1.5-fold response, which translates to ≥7-fold signal over noise as the minimal threshold required to score an interaction as positive.
(§2) HiBiT-GPCR DNA constructs were diluted in 10 mM Tris pH 8 to a final concentration of 0.01 μg/μL, arrayed in 96-well plates and stored at −20 °C. For transfection, HEK293 cells were suspended in Opti-MEM (without phenol red) supplemented with 2% fetal bovine serum (Seradigm) and 100 units/mL penicillin–streptomycin (Gibco) at a final concentration of 220,000 cells/mL and dispensed into white 96-well plates at 90 μL/well. Subsequent transfections and screens were carried using an Agilent Bravo Automated Liquid Handling Platform. First, the 96-well HiBiT DNA arrays were diluted 25-fold in Opti-MEM (without serum or phenol red) to a final concentration of 0.0004 μg/μL and 20 μL of the diluted DNAs were transferred into new 96-well plates. Next, promoterless carrier DNA (1 μg/μL) was diluted 25-fold (0.04 μg/μL) and then dispensed into the diluted arrays at 20 μL/well. Following brief mixing, Viafect transfection reagent (Promega) diluted 16-fold into Opti-MEM was dispensed into the plates at 40 μL/well. After mixing by pipetting, plates were incubated for 10 min on the pipetting station deck. The DNA-transfection reagent complexes were then added to plates containing cells. To facilitate the screen, 10 μL of DNA-transfection reagent complexes were added in duplicates to the top 4 and bottom 4 rows, resulting in two identical 48-well arrays per plate. Plates with transfected cells were incubated for 18–20 h at 37 °C/5% CO2. A screen of each tracer across the entire library using two different concentrations requires duplicate plates of transfected cells. Depending on the number of tracers being screened, transfections can be scaled up using the same ratios. The next day, for each tracer, four 20× screening solutions in tracer dilution buffer (Promega) were prepared: two duplicates at final concentration of 20 μM and two duplicates at a final concentration of 2 μM. […] The four resulting solutions were diluted 4-fold in Opti-MEM without serum or phenol red to generate 5× solutions (5 µM and 0.5 µM tracer +/− 100 μM competing compound). To screen the library, a BioTek MultiFlo FX liquid dispenser was used to dispense 22.5 µL of tracer solution to the top 4 rows and 22.5 µL tracer + competing compound solution to the 4 bottom rows. Plates were briefly mixed on an orbital shaker and incubated for 1.5 h at room temperature. […] Plates were briefly mixed on an orbital shaker and incubated for 15 min to allow complementation.

HTR2B = target: T2, HTR2B (Homo sapiens, UniProt P41595); assay: NanoBRET screen HiBiT-HTR2B in HEK293; assay type: binding; conditions: HTR2B
T2 construct: purchased Promega (in-house HiBiT-GPCR construct library, NanoBRET)
Description: as §1, §2

T2 sequence (P41595 whole entry): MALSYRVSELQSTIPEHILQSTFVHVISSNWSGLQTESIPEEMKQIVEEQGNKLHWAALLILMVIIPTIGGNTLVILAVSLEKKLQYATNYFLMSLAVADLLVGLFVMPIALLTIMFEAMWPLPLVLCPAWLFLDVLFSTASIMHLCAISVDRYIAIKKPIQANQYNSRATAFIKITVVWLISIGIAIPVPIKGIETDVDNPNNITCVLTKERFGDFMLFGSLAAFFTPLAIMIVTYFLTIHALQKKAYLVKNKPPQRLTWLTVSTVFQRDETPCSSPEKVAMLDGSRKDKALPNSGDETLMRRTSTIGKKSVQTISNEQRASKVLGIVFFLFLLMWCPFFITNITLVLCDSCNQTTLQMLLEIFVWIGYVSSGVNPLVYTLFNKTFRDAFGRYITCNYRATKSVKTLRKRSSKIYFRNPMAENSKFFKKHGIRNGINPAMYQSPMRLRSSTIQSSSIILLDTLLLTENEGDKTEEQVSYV

Compound	NanoBRET Fold Response (CHRM5; tracer 0.1μM)	NanoBRET Fold Response (CHRM5; tracer 1μM)	NanoBRET Fold Response (HTR2B; tracer 0.1μM)	NanoBRET Fold Response (HTR2B; tracer 1μM)
CC(C)N(CC[C@H](c1ccccc1)c1cc(CCNC(=O)c2ccc(CNC(=O)CCc3ccc4n3[B-](F)(F)[N+]3=C(c5ccc[nH]5)C=CC3=C4)cc2)ccc1O)C(C)C [Tolterodine-BZ-NB590]	2.88	1.94	0.83	1.07
CCCn1c(=O)c2[nH]c(-c3ccc(OCC(=O)NCCNC(=O)CCOCCNC(=O)c4ccc(CNC(=O)CCc5ccc6n5[B-](F)(F)[N+]5=C(c7ccc[nH]7)C=CC5=C6)cc4)cc3)nc2n(CCC)c1=O [XAC-3-NB590]	0.98	0.86	1.29	0.78

Reference: publication PMC8151276, “An Integrated Approach toward NanoBRET Tracers for Analysis of GPCR Ligand Engagement” (Molecules, 2021)
